ChEMBL document CHEMBL1201862, “PubChem BioAssay data set” (2004)
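Interpolation was linear, between the two tested concentrations surrounding the appropriate level; five concentrations were tested over 48 hours in 96-well plates. GI50: concentration for 50% inhibition of growth.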 Activity calls are given as the source filed them. No stated cut-off is given here; in the data, active = GI50 up to about 1.1 µM and inactive = higher.

Experiments:
Experiment in all cases: inhibition of tumour cell growth, NCI panel, 48 h
[1] = test system: SF-295
[2] = test system: UO-31
[3] = test system: SW-620
[4] = test system: KM12
[5] = test system: RPMI-8226
[6] = test system: EKVX
[7] = test system: SN12C
[8] = test system: CAKI-1
[9] = test system: ACHN
[10] = test system: MOLT-4
[11] = test system: RXF 393
[12] = test system: SNB-19
[13] = test system: HOP-92
[14] = test system: SNB-75
[15] = test system: NCI-H522
[16] = test system: UACC-257

Measured: GI50

COc1cc(/C=C\c2ccccc2)cc(OC)c1OC
inactive: [1] 2.18 µM | [2] 4.46 µM | [3] 2.84 µM | [4] 4.04 µM | [5] 4.18 µM | [6] 6.01 µM | [7] 5 µM | [8] 4.36 µM | [9] 6.98 µM | [10] 3.7 µM | [11] 1.84 µM | [12] 6.08 µM | [13] 3.53 µM | [14] 2.1 µM | [15] 2.67 µM | [16] 5.14 µM

CC(c1ccc(Br)cc1)C(C(=O)O)C(=O)O (configuration not stated)
inactive: [1] > 100 µM | [2] > 100 µM | [3] > 100 µM | [4] > 100 µM | [5] > 100 µM | [6] > 100 µM | [7] > 100 µM | [8] > 100 µM | [9] > 100 µM | [10] > 100 µM | [11] > 100 µM | [12] > 100 µM | [14] > 100 µM | [15] > 100 µM | [16] > 100 µM

CN1/C(=C/C(=O)c2ccc(Cl)cc2)Nc2ccccc21
inactive: [1] 44.9 µM | [2] 13.2 µM | [3] 55.5 µM | [4] 42.4 µM | [5] 31.8 µM | [6] 23.1 µM | [7] 60.4 µM | [8] 20 µM | [9] 33 µM | [10] 22.6 µM | [11] > 100 µM | [12] 41.6 µM | [14] > 100 µM | [15] 19.1 µM | [16] 31.9 µM

C#CCN(N=O)C(=O)NCCCC(NC(C)=O)C(=O)NCc1ccccc1 (configuration not stated)
inactive: [1] > 100 µM | [2] > 100 µM | [3] 92.5 µM | [4] > 100 µM | [5] 15.9 µM | [6] > 100 µM | [7] > 100 µM | [8] 54.6 µM | [9] 56.2 µM | [10] 15.3 µM | [11] > 100 µM | [12] > 100 µM | [13] > 100 µM | [14] 96.8 µM | [15] 29.9 µM | [16] > 100 µM

CCCCCCCC(=O)OC(CBr)COC(=O)C(C)(C)C (configuration not stated)
inactive: [1] > 100 µM | [2] > 100 µM | [3] > 100 µM | [4] > 100 µM | [5] 21.6 µM | [6] > 100 µM | [7] > 100 µM | [8] > 100 µM | [9] > 100 µM | [10] 28.9 µM | [11] > 100 µM | [12] > 100 µM | [13] > 95.5 µM | [14] 12.1 µM | [15] > 100 µM | [16] > 100 µM

c1coc(CNc2[nH]cnc3nncc2-3)c1
inactive: [1] > 100 µM | [2] 70.3 µM | [3] > 100 µM | [4] > 100 µM | [5] 73.8 µM | [6] > 100 µM | [7] > 100 µM | [8] > 100 µM | [9] > 100 µM | [10] > 100 µM | [11] > 100 µM | [12] > 100 µM | [13] 35.8 µM | [14] 38.5 µM | [15] > 100 µM | [16] > 100 µM

OCC[N+]12CCCN1CCC2
inactive: [1] > 100 µM | [2] > 100 µM | [3] > 100 µM | [4] > 100 µM | [6] > 100 µM | [7] > 100 µM | [8] > 100 µM | [9] > 100 µM | [10] > 100 µM | [11] > 100 µM | [12] > 100 µM | [13] > 100 µM | [14] 61.7 µM | [15] > 100 µM | [16] > 100 µM

CC(C)=CC(=O)c1c(C(=O)O)nc2ccccc2[n+]1[O-]
inactive: [1] > 100 µM | [2] > 100 µM | [3] > 100 µM | [4] > 100 µM | [5] > 100 µM | [6] > 100 µM | [7] > 100 µM | [8] > 100 µM | [9] > 100 µM | [10] > 100 µM | [11] > 100 µM | [12] > 100 µM | [13] > 100 µM | [14] > 100 µM | [16] > 100 µM

COc1cccc(OC)c1/C=N\N1C(=O)c2ccccc2C1=O
inactive: [1] 92.3 µM | [2] 55.2 µM | [3] 41.6 µM | [4] 36.6 µM | [5] 28.2 µM | [6] > 100 µM | [7] 57.1 µM | [8] 38.5 µM | [9] 47.4 µM | [10] 40.6 µM | [11] 26.7 µM | [12] > 100 µM | [13] 47.2 µM | [14] 38.5 µM | [16] > 100 µM

COc1ccc(/C(=N/NC(=O)NN)C(c2ccc(OC)cc2)C2(O)CNc3c(Cl)cc(Cl)cc32)cc1 (configuration not stated)
inactive: [1] > 100 µM | [2] > 100 µM | [3] > 100 µM | [4] > 100 µM | [5] 60.8 µM | [6] > 100 µM | [7] > 100 µM | [9] > 100 µM | [10] 44.7 µM | [11] > 100 µM | [12] > 100 µM | [13] 37.7 µM | [14] > 100 µM | [15] > 100 µM | [16] > 100 µM

CN1S(=O)(=O)N(C)P12(N=P(CP(=NP13(N(C)S(=O)(=O)N1C)N(C)S(=O)(=O)N3C)(c1ccccc1)c1ccccc1)(c1ccccc1)c1ccccc1)N(C)S(=O)(=O)N2C
inactive: [2] > 100 µM | [3] > 100 µM | [4] > 100 µM | [5] > 100 µM | [6] > 100 µM | [7] > 100 µM | [8] > 100 µM | [9] > 100 µM | [10] > 100 µM | [11] > 100 µM | [12] > 100 µM | [13] > 100 µM | [14] > 100 µM | [15] > 100 µM | [16] > 100 µM

Cc1ccc(S(=O)(=O)NC(=O)C2S(=O)(=O)OCCOS2(=O)=O)cc1
inactive: [1] > 100 µM | [2] 40.8 µM | [3] > 100 µM | [4] > 100 µM | [5] > 100 µM | [6] > 100 µM | [7] > 100 µM | [8] > 100 µM | [10] > 10 µM | [12] > 100 µM | [13] > 100 µM | [14] > 100 µM | [15] > 100 µM | [16] > 100 µM

COc1ccc(N2C(=O)C3c4[nH]c5ccccc5c4C4CCCCCCCCCCC4C3C2=O)cc1 (configuration not stated)
inactive: [1] 10.7 µM | [2] > 40.6 µM | [3] 4.58 µM | [4] 7.03 µM | [5] 18.7 µM | [6] 23.4 µM | [7] 4.89 µM | [8] 35.4 µM | [9] 29.4 µM | [10] 15 µM | [12] 8.81 µM | [13] 19 µM | [14] 12.7 µM | [15] 18 µM | [16] 31.6 µM

Cc1ccc(C(=O)O/N=C2/CCC/C2=C\c2ccccc2)cc1
inactive: [1] > 100 µM | [2] > 100 µM | [3] > 100 µM | [4] > 100 µM | [5] > 100 µM | [6] > 100 µM | [7] > 100 µM | [8] > 100 µM | [9] > 100 µM | [10] > 100 µM | [11] > 100 µM | [13] > 100 µM | [14] 69.3 µM | [15] > 100 µM | [16] > 100 µM

CCCCCCCCCCCCCCCCCC(=O)NCC(COP(=O)(O)O)OCC (configuration not stated)
inactive: [1] 18.5 µM | [2] 34.1 µM | [3] > 100 µM | [4] 25 µM | [5] > 100 µM | [6] 46.3 µM | [7] 22 µM | [8] 31.2 µM | [10] > 100 µM | [12] 47.2 µM | [13] 13.7 µM | [14] 26.1 µM | [15] 29.7 µM | [16] > 100 µM

COc1ccc(/C=C/C(=O)c2sc(Nc3ccc([N+](=O)[O-])cc3)nc2C)cc1
inactive: [1] 23.3 µM | [2] 25.4 µM | [3] 42.3 µM | [4] 27.4 µM | [5] 19.3 µM | [6] 43.9 µM | [7] 50.2 µM | [8] 40.2 µM | [9] 38.6 µM | [10] 17.7 µM | [11] 23.1 µM | [12] 35.3 µM | [13] 20.8 µM | [14] 43.5 µM | [15] 18.2 µM

N#C/C(=C1\SC(/N=N/c2ccc(Cl)cc2)C(=O)N1c1ccccc1)c1nc2ccccc2[nH]1 (configuration not stated)
inactive: [1] 18.5 µM | [2] 19.8 µM | [3] 98.6 µM | [6] 47.3 µM | [7] 96.8 µM | [8] 48.4 µM | [9] 25.5 µM | [11] 36.6 µM | [12] 30.1 µM | [13] 18.8 µM | [14] 25.9 µM | [15] 23.8 µM | [16] 27.3 µM

C=CC[P@@]1(=O)O[C@H](c2ccccc2)C(C)N1C(C)C (some centres not stated)
inactive: [1] > 100 µM | [2] > 100 µM | [3] > 100 µM | [4] > 100 µM | [5] > 100 µM | [6] > 100 µM | [7] > 100 µM | [9] > 100 µM | [10] > 100 µM | [11] > 100 µM | [12] > 100 µM | [14] > 100 µM
